Tests used:
B16F10 melanocyte = assay: Suppression of generation of melanin to the B16F10 melanocyte; type: cell-based, mouse; settings: 72 hours; red light 20 μW/cm^2; absorbance at 405 nm
Description: The B16F10 melanocyte is a cell strain derived from a mouse, and is a cell secreting a black pigment that is called melanin. The B16F10 melanocyte used in the present Experimental Example was distributed from ATCC (American Type Culture Collection™), and used.
The B16F10 melanocyte was divided in the 2×10^6 concentration for each well on the 6-well plate, attached, and cultivated by irradiating red light in the culture medium of Experimental Example 1 for 72 hours. After cultivation for 72 hours, the cells were separated by trypsin-EDTA (ethylenediaminetetraacetic acid), the number of cells was measured, and centrifugation was performed to collect the cells. Quantification of melanin in the cell was performed by modifying the Lotan's method. […] Melanin extracted by adding 1N NaOH (10% dimethyl sulfoxide (DMSO)) to the filtrate of the cell obtained by centrifugation was dissolved, absorbance of melanin was measured by the microplate reader at 405 nm, and melanin was quantified to measure the melanin generation hindrance ratio (%) of the sample. […]
The melanin generation hindrance ratio (%) of the B16F10 melanocyte was calculated by the following Equation 4, and the result is described in the following Table 4. […]

[1] = system: proinflammatory cytokine (1L-1α); assay: Suppression of proinflammatory cytokine expression by irradiation of ultraviolet rays (ELISA); type: cell-based, human; settings: after 10 mJ/cm^2 ultraviolet ray B; red light for 72 hours at 5 or 47.5 μW/cm^2
Description: 5×10^4 keratinocytes separated from the human epidermal tissue were put at a time on the 24-well test plate, and attached for 24 hours. Each well was washed by the PBS once, and 500 μl of the PBS was put on each well. After 10 mJ/cm^2 of ultraviolet rays were irradiated on the keratinocytes by using the ultraviolet ray B lamp, the PBS was taken out, and 350 μl of the cell cultivation medium (DMEM to which the […] was not added) was added. In addition, red light was irradiated in the culture medium of Experimental Example 1 for 72 hours to perform cultivation. 150 μl of cultivation supernatant was sampled to quantify proinflammatory cytokine (1L-1α) and thus judge the expression suppression effect of proinflammatory cytokine. The amount of proinflammatory cytokine was quantified by using the enzyme-linked immunosorbent assay, and ketoprofen known as the proinflammatory cytokine suppression material was used as the positive control group. The expression suppression ratio (%) of proinflammatory cytokine was calculated by the following Equation 7, and the result is described in the following Table 6.
Expression suppression ratio of […]

MMP-2 = assay: Suppression of generation of collagenase MMP-2 in fibroblast; type: cell-based, human; settings: fibroblast supernatant; three days; red light 47.5 μW/cm^2; TGF-β 10 ng/ml
Description: (§1) The fibroblast (Korean Cell Line Bank, Korean) that was the human normal skin cell was inoculated on the 48-well microplate (Nunc™, Denmark) so that the number of cells was 1×10^6 for each well, cultivated in the DMEM medium (Sigma™, USA) under the condition of 37° C. for 24 hours, and cultivated by irradiating red light for three days in the culture medium of Experimental Example 1. In order to perform the comparative experiment, red light having the similar wavelength was irradiated for three days to perform cultivation, and TGF-β (10 ng/ml) known to have the effect of suppressing generation of collagenase MMP-1,2 was used as the positive control group. Cultivation was further performed for 48 hours in the culture medium having no light irradiation function to use the resulting fibroblast as the control group.
(§2) After cultivation, the supernatant liquid of each well was collected to measure the amount (ng/ml) of newly synthesized MMP-1,2 by using the MMP-1,2 analysis kit (Amersham™, USA), the MMP generation suppression ratio (%) was calculated according to the following Equation 2, and the result is described in the following Table 2.
(§3) MMP generation rate(%)=(Amount of MMP of the experimental group/Amount of MMP of the control group)×100 (Equation 2)

HaCaT keratinocyte = assay: Cell regeneration, MTT assay on HaCaT keratinocyte; type: cell-based; settings: three days cultivation, red light 47.5 μW/cm^2, TGF-β 10 ng/ml
Description: On the 24-well plate, the HaCaT keratinocyte (German Cancer Research Institute, Germany) was inoculated into the DMEM (Dulbecco™ Modified Eagle′ Medium) to which the 10% FBS (fetal bovine serum) was added in the density of 2×10^5 cells/well, and cultivated for one day in the humidified culture medium of 37° C. and 5% CO2. After exchanging with the serum-free DMEM, red light was irradiated for three days in the culture medium in which the aforementioned display device was installed to perform cultivation. In order to perform the comparative experiment, red light having the similar wavelength was irradiated for three days to perform cultivation, and TGF-β (transforming growth factor beta) (10 ng/ml), which is the material known to have a cell regeneration effect, was used as the positive control group. Further, cultivation was performed for three days in the culture medium having no light irradiation function to use the resulting keratinocyte as the control group. The degrees of generation of the cell were compared and evaluated by using the MTT (Microculture Tetrazolium) assay method, and the experimental result is described in the following Table 1.
In general, regeneration of the skin cell is measured by the activation rate of the cell, and the activation rate of the cell is proportional to the absorbance (at 570 nm) in Table 1. […]

[2] = system: procollagen type IC-peptide (PICP); assay: Improvement of synthesis of collagen (PICP) in fibroblast; type: cell-based, human; settings: red light 47.5 μW/cm^2 for 24 hours or 72 hours; TGF-β 10 ng/ml
Description: The fibroblast that was the human normal […] cell was inoculated on the 48-well microplate so that the number of cells was 1×10^6 for each well, cultivated in the DMEM medium for 24 hours, and cultivated by irradiating red light in a predetermined quantity for one day and three days in the culture medium of Experimental Example 1. In order to perform the comparative experiment, TGF-β (10 ng/ml) known to have the collagen synthesis improvement effect was used as the positive control group, and cultivation was further performed for 48 hours in the culture medium having no red light irradiation function to use the resulting fibroblast as the control group.
After cultivation, the supernatant liquid of each well was collected to measure the amount of procollagen type IC-peptide (PICP) by using the collagen kit (Takara™, Japan) and thus measure the amount of synthesized collagen. The collagen biosynthesis increase ratio (%) was calculated according to the following Equation 3, and the result is described in the following Table 3.
Collagen biosynthesis increase ratio(%)=(Amount of collagen of the experimental group/[…])×100 (Equation 3)

MMP-1 = assay: Suppression of generation of collagenase MMP-1 in fibroblast; type: cell-based, human; settings: fibroblast supernatant; three days; red light 47.5 μW/cm^2; TGF-β 10 ng/ml
Description: as §1, §2, §3

Molecule: Oc1ccc(O)cc1 [Comparative Example 10, hydroquinone]
- Melanin generation hindrance ratio (%) (B16F10 melanocyte): 73.1%

Molecule: OC[C@H]1O[C@@H](Oc2ccc(O)cc2)[C@H](O)[C@@H](O)[C@@H]1O [Comparative Example 11, arbutin]
- Melanin generation hindrance ratio (%) (B16F10 melanocyte): 52.3%

Molecule: CC(C(=O)O)c1cccc(C(=O)c2ccccc2)c1 (stereo not shown) [compound 12, ketoprofen]
- Expression suppression ratio of proinflammatory cytokine (%) [1]: 41.1%

Molecule: TGF-β (transforming growth factor beta) [compound 3]
- MMP-2 generation suppression ratio (%) (MMP-2): 76.2%
- Absorbance (at 570 nm) (HaCaT keratinocyte): 1.423
- Collagen biosynthesis increase ratio (%) [2]: 24.7%
- MMP-1 generation suppression ratio (%) (MMP-1): 75.1%
